How the values were obtained:
[1] = test system: three dimensional human skin model MEL-300 (normal human skin keratinocytes containing normal human epidermal melanocytes); experiment: Inhibitory effects for melanocyte dendrite formation (three dimensional human skin model); format: cell-based; conditions: 0.1 ml of a 30 mmol/l solution, MEL-300 cups, 7 days of incubation, vs 0.2% ethanol control, Scheffe, significance level 5%, n=3 (FIG. 1)
Experimental: (§1) Melanin formation inhibitory effects of the compounds 4 and 5 shown in Table 1 were evaluated using three dimensional human skin model MEL-300 (normal human skin keratinocytes containing normal human epidermal melanocytes). The MEL-300 skin model cups were transferred to a 6-well plate, each well containing 0.9 ml of EPI-100-LLMM maintenance medium, and were pre-incubated at 37° C. and 5% CO2 for 1 hour.
(§2) The maintenance medium was suction removed, and 5 ml of the maintenance medium was newly added. Thereafter, 0.1 ml of a 30 mmol/l solution of the compound 4 or 5 was added to the MEL-300 skin model cups, and the resultant were incubated. The controls were given 0.1 ml of a 0.2% ethanol solution.
The maintenance medium and the test substance were replaced every two days, and the incubation was performed for 7 days. After the 7 days of incubation, the cells inside the three dimensional human skin model cup were photographed, and the proportion (%) of the area of melanocytes was calculated by image analysis. Significant difference was tested by a post-hoc test (Scheffe method). The significance level was 5%. […] In this experiment, n=3.

[2] = test system: three dimensional human skin model MEL-300 (normal human skin keratinocytes containing normal human epidermal melanocytes); experiment: Melanin synthesis inhibitory test (three dimensional human skin model); format: cell-based; conditions: 0.1 ml of a 30 mmol/l solution, MEL-300 cups, 14 days of incubation, vs 0.2% ethanol control, Scheffe, significance level 1%, n=3 (FIG. 2)
Experimental: as §1, with “4 or” for “4 and”
as §2, with “solution. The positive controls were given 0.1 ml of a 30 mmol/l kojic acid solution.” for “solution.”
The maintenance medium and the test substance were replaced every two days, and the incubation was performed for 14 days. […]
After the reaction, the reaction liquid was sufficiently stirred and the incubated skin piece was completely crushed. […] The supernatant was analyzed to determine the absorbance at 405 nm. A linear calibration curve was prepared based on the absorbances of melanin solutions of known concentrations that had been treated similarly. The melanin contents in the incubated skin pieces were thus determined. […]

C3H mice = experiment: Accelerating effects for mouse body hair growth; format: in vivo; conditions: male C3H/HeN mice, shaved dorsal region, 0.1 ml of a 50 μmol/g ointment once a day, Day 18, vs coating stimulation only, Scheffe, significance level 5%, n=6 (FIG. 3)
Experimental: Male C3H/HeN that were seven weeks old in a telogen hair cycle were used.
The dorsal region of the mice was shaved with an electrical hair clipper (0.05 mm blades) and an electrical shaver. From the next day, 0.1 ml of a 50 μmol/g ointment of the compound 4 or 5 was coated on the shaved regions once a day using a bacteria spreader. The controls were given only coating stimulation with a bacteria spreader.
The dorsal region of the mice on Day 18 after the initiation of coating was photographed. The proportion of the area of the region where hair had regrown relative to the total area of the shaved region was calculated by image analysis. The value obtained thereby indicated the hair regrowth rate (%). Significant difference was tested by a post-hoc test (Scheffe method). The significance level was 5%.
In this experiment, n=6 for the test substances and n=7 for the controls.

[3] = background art statement; cited from earlier work

COc1c(OC(=O)CN(C)C)c(C)c(CC=C(C)CCC=C(C)CCC=C(C)CCC=C(C)CCC=C(C)CCC=C(C)CCC=C(C)CCC=C(C)CCC=C(C)CCC=C(C)C)c(OC(=O)CN(C)C)c1OC.Cl [Compound 4, 2,3-dimethoxy-5-methyl-6-decaisoprenylbenzene 1,4-bis-N,N-dimethyl glycinate hydrochloride]
formation of melanocyte dendrites (proportion (%) of the area of melanocytes by image analysis) [1]: significantly inhibited
melanin production (melanin contents in the incubated skin pieces, absorbance at 405 nm) [2]: significantly decreased
hair regrowth rate (%) (C3H mice): significantly increased

COc1c(O)c(CC=C(C)CCC=C(C)CCC=C(C)CCC=C(C)CCC=C(C)CCC=C(C)CCC=C(C)CCC=C(C)CCC=C(C)CCC=C(C)C)c(C)c(OC(=O)CN(C)C)c1OC.Cl [Compound 5, 2,3-dimethoxy-5-methyl-6-decaisoprenyl-1-hydroxybenzene 4-N,N-dimethyl glycinate hydrochloride]
formation of melanocyte dendrites (proportion (%) of the area of melanocytes by image analysis) [1]: significantly inhibited
melanin production (melanin contents in the incubated skin pieces, absorbance at 405 nm) [2]: significantly decreased
hair regrowth rate (%) (C3H mice): significantly increased

COC1=C(OC)C(=O)C(CC=C(C)CCC=C(C)CCC=C(C)CCC=C(C)CCC=C(C)CCC=C(C)CCC=C(C)CCC=C(C)CCC=C(C)CCC=C(C)C)=C(C)C1=O [ubiquinone-10, 2,3-dimethoxy-5-methyl-6-decaisoprenyl-1,4-benzoquinone]
solubility in water [3]: completely insoluble in water
